In brackets after ≈: the same amount, converted by molar mass. Read-outs that look alike come from different tables or passages of the source. Numbered stars: 1 amine (or outer) side, 2 acyl side, 3 side chain; on linkers, the order of the positions; unused ones are H or OH. Bridge positions count the residues as written; N and C are the ends. Square brackets hold non-standard residues; d marks the D form. Peptide text beside a SMILES is read from it. X1 = CC(C)CCCCCCCCC[C@H](CC(=O)[*:1])O[*:2]
How the values were obtained:
TNBS-induced colitis = TNBS-induced colitis in rats; assay type: in vivo, Wistar rats; conditions: for number of observations of diarrhea recorded / number of animals affected by diarrhea: day 1 to 7
Description: Two consecutive trials were done. Male Wistar rats were obtained from the National Centre for Laboratory Animal Sciences (Hyderabad, India) (trial 1) or from the Department of Animal Medicine, […], India) (trial 2). […] Upon their arrival at the test facility, the animals were given a complete clinical examination under the supervision of a veterinarian to ensure that they were in good condition. The animals were acclimatized to the study conditions for a period of at least 7 days. Per trial, animals were randomised and allocated to one of the study groups. […] All animals had free access (except for the overnight fasting prior to TNBS administration) to rat pellet feed from the National Institute of Nutrition (NIN, Hyderabad, India) and Aquaguard purified water ad libitum. In both trials the day of induction of colitis was set as day 1. […] The colitis-negative control groups were given saline intrarectally (0.5 ml per animal once) on day 1. […] Except for infliximab, which was injected intravenously^59, all treatments were administered by gavage. Twice daily observations were made for clinical signs and mortality. […] These segments were opened longitudinally. […] Mesalazine (Mesacol®, Sun Pharmaceutical Ind. Ltd, Mumbai, India) tablets were powdered using pestle and mortar and a solution in distilled water was prepared containing 25 mg 5-aminosalicylic acid per ml. […] Remicade® (Infliximab) (Centocor B. V., Leiden, The Netherlands) was first reconstituted with 10 ml water for injection and was further diluted to 2 mg/ml concentration using saline. […] All body weight dependant doses were administered on the basis of the last individual body weight taken. Fresh preparations were made prior to each administration. The preparations were stirred vigorously before each dosing.

[1] = test system: Clostridium difficile ATCC 9689; assay: Clindamycin-induced CDAD hamster model; assay type: in vivo, Golden Syrian hamsters; conditions: for diarrhea score / Number of animals with diarrhea: vancomycin 50 mg/Kg oral once daily days 2-6; for Number of animals tested positive for C difficile toxins A or B in faeces: vancomycin
cytosolic PLA2 = target: T1, cytosolic PLA2 (Homo sapiens, UniProt P47712); conditions: known from literature; cited from earlier work
T1 sequence (P47712 1-749): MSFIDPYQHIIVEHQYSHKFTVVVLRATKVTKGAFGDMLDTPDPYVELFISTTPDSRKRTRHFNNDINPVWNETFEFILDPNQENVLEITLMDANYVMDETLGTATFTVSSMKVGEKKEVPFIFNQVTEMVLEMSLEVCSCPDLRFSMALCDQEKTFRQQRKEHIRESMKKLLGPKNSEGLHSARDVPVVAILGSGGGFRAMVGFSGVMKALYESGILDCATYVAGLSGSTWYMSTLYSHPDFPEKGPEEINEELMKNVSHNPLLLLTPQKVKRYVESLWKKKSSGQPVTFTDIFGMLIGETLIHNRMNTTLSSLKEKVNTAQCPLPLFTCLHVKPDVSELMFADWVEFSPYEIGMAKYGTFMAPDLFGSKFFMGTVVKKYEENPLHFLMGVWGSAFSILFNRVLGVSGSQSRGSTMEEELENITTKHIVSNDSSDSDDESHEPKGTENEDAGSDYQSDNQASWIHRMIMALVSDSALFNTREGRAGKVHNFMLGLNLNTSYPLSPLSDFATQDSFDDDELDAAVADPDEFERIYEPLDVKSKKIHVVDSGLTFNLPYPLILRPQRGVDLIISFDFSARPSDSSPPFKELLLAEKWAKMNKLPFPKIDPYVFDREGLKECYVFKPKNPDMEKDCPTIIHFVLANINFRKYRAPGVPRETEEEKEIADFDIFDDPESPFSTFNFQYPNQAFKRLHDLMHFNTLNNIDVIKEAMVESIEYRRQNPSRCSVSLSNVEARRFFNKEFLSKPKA

C. perfringens ATCC13124 = assay: microbe, parasite or virus in culture; assay type: cell-based; conditions: Clostridium perfringens, ATCC13124, 18 h
Clostridium perfringens = assay: microbe, parasite or virus in culture; assay type: cell-based
[2] = Immune response (phagocytosis) in male broilers; assay type: in vivo; conditions: 100 mg/kg zinc bacitracin
[3] = Trial 1, Day 1 (baseline), mesalazine 250 mg/Kg/day, infliximab 3 mg/Kg single i.v. dose
[4] = Trial 1, Day 1 to 7, mesalazine 250 mg/Kg/day, infliximab 3 mg/Kg single i.v. dose
[5] = Trial 1, Day 4, mesalazine 250 mg/Kg/day, infliximab 3 mg/Kg single i.v. dose
[6] = Trial 1, Day 7, mesalazine 250 mg/Kg/day, infliximab 3 mg/Kg single i.v. dose
[7] = Trial 1, scale 0-5, mesalazine 250 mg/Kg/day, infliximab 3 mg/Kg single i.v. dose
[8] = Trial 1, mesalazine 250 mg/Kg/day, infliximab 3 mg/Kg single i.v. dose
[9] = Trial 2, Day 1 (baseline), PB6 and S. boulardii 1.5 10^8 CFU/Kg 3 times daily, mesalazine 250 mg/Kg/day, infliximab 3 mg/Kg single dose
[10] = Trial 2, Day 1 to 7, doses as for Day 1
[11] = Trial 2, Day 4, doses as for Day 1
[12] = Trial 2, Day 7, doses as for Day 1
[13] = Trial 2, scale 0-5, PB6 and S. boulardii 1.5 10^8 CFU/Kg 3 times daily, mesalazine 250 mg/Kg/day, infliximab 3 mg/Kg single dose
[14] = Trial 2, PB6 and S. boulardii 1.5 10^8 CFU/Kg 3 times daily, mesalazine 250 mg/Kg/day, infliximab 3 mg/Kg single dose
[15] = first trial, mesalazine 250 mg/Kg/day, infliximab 3 mg/Kg single dose
[16] = second trial, PB6 and S. boulardii 3×1.5 10^8 CFU/Kg/day, mesalazine 250 mg/Kg/day, infliximab 3 mg/Kg single dose
[17] = trial 1, one individual rat, infliximab 3 mg/Kg

Row | Compound | Av. Body weight (TNBS-induced colitis; [3]) | Av. Body weight gain (%) (TNBS-induced colitis; [4]) | Av. Body weight (TNBS-induced colitis; [5]) | Av. Body weight (TNBS-induced colitis; [6]) | Gross morphology score (TNBS-induced colitis; [7]) | Wet weight (g) of a 5 cm colon segment (TNBS-induced colitis; [8]) | Av. Body weight (TNBS-induced colitis; [9]) | Av. Body weight gain (%) (TNBS-induced colitis; [10]) | Av. Body weight (TNBS-induced colitis; [11]) | Av. Body weight (TNBS-induced colitis; [12]) | Gross morphology score (TNBS-induced colitis; [13]) | Wet weight (g) of a 5 cm colon segment (TNBS-induced colitis; [14]) | number of observations of diarrhea recorded (TNBS-induced colitis; [15]) | number of animals affected by diarrhea (TNBS-induced colitis; [16]) | number of observations of diarrhea recorded (TNBS-induced colitis; [16]) | other results
1 | Nc1ccc(O)c(C(=O)O)c1 [Mesalazine, 5-aminosalicylic acid] | 181 ± 11 g | 8.8 ± 1.4 % | 187 ± 10 g | 196 ± 10 g | 0.8 ± 0.4 | 0.435 ± 0.052 g | 207 ± 12 g | −3.3 ± 5.5% | 199 ± 18 g | 201 ± 20 g | 1.2 ± 0.8 | 0.445 ± 0.145 g | 0 | 1 | 12 | 
2 | CN[C@H](CC(C)C)C(=O)N[C@H]1C(=O)N[C@@H](CC(N)=O)C(=O)N[C@H]2C(=O)N[C@H]3C(=O)N[C@H](C(=O)N[C@H](C(=O)O)c4cc(O)cc(O)c4-c4cc3ccc4O)[C@H](O)c3ccc(c(Cl)c3)Oc3cc2cc(c3O[C@@H]2O[C@H](CO)[C@@H](O)[C@H](O)[C@H]2O[C@H]2C[C@](C)(N)[C@H](O)[C@H](C)O2)Oc2ccc(cc2Cl)[C@H]1O [Vancomycin, vancomycin] |  |  |  |  |  |  |  |  |  |  |  |  |  |  |  | Average body weight ([1]; Day 0 (baseline), CDAD induced, vancomycin 50 mg/Kg): 218.0 ± 4.6 g; diarrhea score ([1]; Day 1): +; Number of animals with diarrhea ([1]; Day 1, 6 animals): 1; Number of animals tested positive for C difficile toxins A or B in faeces ([1]; Day 1, 6 tested): 0; Number of animals with diarrhea ([1]; Day 2): 2; diarrhea score ([1]; Day 2): ++; Number of animals tested positive for C difficile toxins A or B in faeces ([1]; Day 2, 6 tested): 2; Number of animals with diarrhea ([1]; Day 3): 2; diarrhea score ([1]; Day 3): +++; Number of animals tested positive for C difficile toxins A or B in faeces ([1]; Day 7, 4 tested): 1; Survival at end of treatment period ([1]; day 6, vancomycin 50 mg/Kg once daily): 4 out of 6
3 | CC(C)CCCCCCCCC[C@@H]1CC(=O)N[C@@H](CCC(=O)O)C(=O)N[C@@H](CC(C)C)C(=O)N[C@H](CC(C)C)C(=O)N[C@@H](C(C)C)C(=O)N[C@@H](CC(=O)O)C(=O)N[C@H](CC(C)C)C(=O)N[C@@H](CC(C)C)C(=O)O1 [surfactin] (EL[dL]VD[dL]L; linker N-C via X1) |  |  |  |  |  |  |  |  |  |  |  |  |  |  |  | inhibition of the activity of cytosolic PLA2 (cytosolic PLA2): inhibits; MIC (C. perfringens ATCC13124): 10 to 25 µg/mL (≈ 9.65 to 24.1 µM); MIC (Clostridium perfringens; read-out: MIC (C. perfringens), 30′ 0.1 N HCl, 37° C.): 10 to 25 µg/mL (≈ 9.65 to 24.1 µM); MIC (Clostridium perfringens; read-out: MIC (C. perfringens), 60′ 0.1 N HCl, 37° C.): 25 to 50 µg/mL (≈ 24.1 to 48.2 µM); MIC (Clostridium perfringens; read-out: MIC (C. perfringens), 90′ 0.1 N HCl, 37° C.): 25 to 50 µg/mL (≈ 24.1 to 48.2 µM); MIC (Clostridium perfringens; read-out: MIC (C. perfringens), No HCL): 1 to 10 µg/mL (≈ 0.965 to 9.65 µM)
4 | Infliximab: Remicade® (Infliximab), Centocor, standard drug | 180 ± 14 g | 1.3 ± 5.4 % | 183 ± 7 g | 186 ± 6 g | 3.0 ± 1.4 | 1.055 ± 0.490‘ g | 208 ± 15 g | −5.2 ± 3.4% | 197 ± 14 g | 197 ± 13 g | 2.0 ± 0.7 | 0.657 ± 0.076 g | 8 | 2 | 24 | number of animals affected by diarrhea (TNBS-induced colitis; first trial, infliximab 3 mg/Kg single dose): 1; colon segment weight of one rat (TNBS-induced colitis; [17]): 0.402 g; gross morphology score of one rat (TNBS-induced colitis; [17]): 1
5 | zinc bacitracin |  |  |  |  |  |  |  |  |  |  |  |  |  |  |  | Phagocytosis [2]: 6.23

Source: patent US20080057047A1, “Use of bacillus amyloliquefaciens PB6 for the prophylaxis or treatment of gastrointestinal and immuno-related diseases” (priority 2005, published 2008)
